This is an account of results in ChEMBL document CHEMBL1152105, “Anthraquinones related to rhein inhibit glucose uptake into chondrocytes. A mechanism for anti-osteoarthritis drugs?” (1997).

A short description of this test: Percent inhibition of glucose uptake into chondrocytes prepared from the metacarpophalageal joints of mature cow at concentration of 50 uM. In kind it is functional. The note with it: Bos taurus.

Structures are written as SMILES.

As a reminder, the inhibition is the change of the read-out against control, counted positive when it falls.

With `O=C(O)c1cc(O)c2c(c1)C(=O)c1c(O)ccc(O)c1C2=O`, the inhibition at 50 µM was found to be 22.1%.
The value for `COc1ccc(OC)c2c1C(=O)c1ccc(C(=O)O)cc1C2=O` was 25.3%; that for `CC(=O)Oc1ccc(OC(C)=O)c2c1C(=O)c1ccc(C(=O)O)cc1C2=O` was 14.8%.
In the case of `CCOc1ccc(OCC)c2c1C(=O)c1ccc(C(=O)O)cc1C2=O`, the inhibition at 50 µM worked out at 37.7%.
`COc1cc(C(=O)O)c(OC)c2c1C(=O)c1ccccc1C2=O`: the inhibition at 50 µM amounted to 14%.
In the case of `CCCOc1cccc2c1C(=O)c1c(OCCC)cc(C(=O)O)cc1C2=O`, the inhibition at 50 µM worked out at 56.7%.
Regarding `O=C1c2cccc(O)c2C(=O)c2c(O)cc(-c3nn[nH]n3)cc21`, the inhibition at 50 µM was found to be 103%.
For `COc1ccc(OC)c2c1C(=O)c1ccc(-c3nn[nH]n3)cc1C2=O`, the inhibition at 50 µM is 81.8%.
As for `CCOc1cccc2c1C(=O)c1c(OCC)cc(-c3nn[nH]n3)cc1C2=O`, the inhibition at 50 µM is 92%.
The value for `O=C(O)c1cc(O)c2c(c1O)C(=O)c1ccccc1C2=O` was 24.9%.
In the case of `Oc1cc(O)c2c(c1)O[C@H](c1ccc(O)c(O)c1)[C@@H](O)C2` [CIANIDANOL], the inhibition at 50 µM worked out at 12.1%.
In the case of `O=C(O)c1ccc2c(c1)C(=O)c1cc(O)ccc1C2=O`, the inhibition at 50 µM came out at 16.9%.
On to `COc1cccc2c1C(=O)c1c(OC)cc(C(=O)O)cc1C2=O`, for which the inhibition at 50 µM is -1.9%.
On to `O=C(O)c1cc(O)c2c(c1)C(=O)c1cccc(O)c1C2=O` [RHEIN], for which the inhibition at 50 µM is 3%.
As to `COc1cccc2c1C(=O)c1c(OC)cc(-c3nn[nH]n3)cc1C2=O`, the inhibition at 50 µM turned out to be 36.2%.
The value for `CC(=O)Oc1ccc2c(c1)C(=O)c1cc(C(=O)O)ccc1C2=O` was 1.6%.
With `COc1cc(C(=O)O)cc2c1C(=O)c1c(OC)ccc(OC)c1C2=O`, the inhibition at 50 µM is 4.8%.
Consider `CCOc1cccc2c1C(=O)c1c(OCC)cc(C(=O)O)cc1C2=O`, for which the inhibition at 50 µM came to 18.5%.
With `O=C(CCc1ccc(O)cc1)c1c(O)cc(O)cc1O[C@@H]1O[C@H](CO)[C@@H](O)[C@H](O)[C@H]1O` [PHLORIZIN], the inhibition at 50 µM was 11.9%.
